PMC7139703, “Thiopurine Derivative-Induced Fpg/Nei DNA Glycosylase Inhibition: Structural, Dynamic and Functional Insights” (International Journal of Molecular Sciences, 2020)

Biological target: T1, mvNei1 (Acanthamoeba polyphaga mimivirus, UniProt Q5UQ00)
T1 construct: 6His (C); made in house; host or cells: E. coli Rosetta2 (DE3)
Assay: EMSA, mvNei1 DNA binding to THF-containing DNA duplex
Details: Figure 4
Description: Figure 4 Comparative analysis of the effect of 2TX and TXn on Fpg/Nei DNA glycosylases. Enzyme activities were measured as described in the Figure 1 legend using 0.1 nM of a 5′-[^32P]-24-mer DNA duplex containing either an 8-oxoG opposite C for LlFpg or a […] (DHU) opposite G for hNeil1 and mvNei1. The DNA probe was incubated with the indicated protein concentration and 0.2 mM TXn compounds in the presence or absence of 1 mM dithiothreitol (DTT) and TCEP (a representative experiment is illustrated by the upper histograms). […]
The DNA binding activity was measured using EMSA [37]. […] After electrophoresis, the gels were dried and exposed overnight for autoradiography using a Typhoon imager and quantified with ImageQuant software. To evaluate the inhibitor effect of 2TX/TXn on the DNA binding activity of each Fpg/Nei enzyme, we first determined the experimental conditions required to bind 50% of the DNA probes without an inhibitor in the presence of 8% DMSO (limiting enzyme concentration). […] This effect was determined by the addition of the thio-compound in the pre-equilibrium mixture of the enzyme and DNA probe (30 min) and incubated for an additional 30 min at 4 °C. For the best inhibitors of Fpg, a dose-response curve was established from at least three independent experiments and the IC50 was determined (IC50^B, Table 1).

T1 sequence (Q5UQ00 whole entry): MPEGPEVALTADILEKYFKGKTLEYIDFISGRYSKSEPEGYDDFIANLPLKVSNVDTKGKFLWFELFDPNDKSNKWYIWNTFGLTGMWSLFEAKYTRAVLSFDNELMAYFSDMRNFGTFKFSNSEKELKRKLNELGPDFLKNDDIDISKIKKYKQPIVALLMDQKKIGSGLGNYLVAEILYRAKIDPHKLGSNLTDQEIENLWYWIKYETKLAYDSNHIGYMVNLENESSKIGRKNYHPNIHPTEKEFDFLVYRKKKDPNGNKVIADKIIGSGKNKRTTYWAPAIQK

O=c1[nH]c(=S)[nH]c2[nH]c(=S)[nH]c12 [TX19]
effect on mvNei1 DNA binding activity: apparent inhibitory effects
